Laboratory results taken from ChEMBL document CHEMBL5724914, “Linking interpersonal differences in gut microbiota composition and drug biotransformation activity” (2024).

Columns and labels:
[1] = (§1) The drug is tested on Z-029 corresponding to rat gut metagenome with ENA study accession number: PRJEB37062 and ENA sample accession number: ERS12561828 for biotransformation under anaerobic condition. The drug concentrations were measured over 9 timepoints collected between 0 and 24 hours of incubation by liquid-chromatography-coupled mass spectrometry (LC–MS); settings: 2 µM
[2] = as §1, with “Z-010” for “Z-029”, “to” for “to rat gut”, “ERS12561810” for “ERS12561828”; settings: 2 µM
[3] = as §1, with “Z-008” for “Z-029”, “to” for “to rat gut”, “ERS12561808” for “ERS12561828”; settings: 2 µM
[4] = human gut metagenome, 24 h, 2 µM
[5] = human gut metagenome, 24 h, 2 µM; remark: listed apart in the source
[6] = human gut metagenome, 24 h, 2 µM; remark: listed apart in the source
[7] = human gut metagenome, 24 h, 2 µM; remark: listed apart in the source
[8] = human gut metagenome, 24 h, 2 µM; remark: listed apart in the source
[9] = human gut metagenome, 24 h, 2 µM; remark: listed apart in the source
Also: call rule not given here.

SMILES: OC(Cn1cncn1)(Cn1cncn1)c1ccc(F)cc1F [FLUCONAZOLE]
- Bacterial Biotransformation [1]: Compound NOT metabolized
- Bacterial Biotransformation [2]: Compound NOT metabolized
- Bacterial Biotransformation [3]: Compound NOT metabolized
- Bacterial Biotransformation [4]: Compound NOT metabolized
- Bacterial Biotransformation [5]: Compound metabolized
- Bacterial Biotransformation [6]: Compound metabolized
- Bacterial Biotransformation [7]: Compound NOT metabolized
- Bacterial Biotransformation [8]: Compound metabolized
- Bacterial Biotransformation [9]: Compound NOT metabolized

SMILES: CNCCC(Oc1ccc(C(F)(F)F)cc1)c1ccccc1 (stereo not given) [FLUOXETINE]
- Bacterial Biotransformation [1]: Compound NOT metabolized
- Bacterial Biotransformation [2]: Compound NOT metabolized
- Bacterial Biotransformation [3]: Compound NOT metabolized
- Bacterial Biotransformation [4]: Compound NOT metabolized
- Bacterial Biotransformation [5]: Compound NOT metabolized
- Bacterial Biotransformation [6]: Compound NOT metabolized
- Bacterial Biotransformation [7]: Compound metabolized
- Bacterial Biotransformation [8]: Compound NOT metabolized
- Bacterial Biotransformation [9]: Compound NOT metabolized

SMILES: O=C(CCCN1CCC(O)(c2ccc(Cl)cc2)CC1)c1ccc(F)cc1 [HALOPERIDOL]
- Bacterial Biotransformation [1]: Compound NOT metabolized
- Bacterial Biotransformation [2]: Compound NOT metabolized
- Bacterial Biotransformation [3]: Compound NOT metabolized
- Bacterial Biotransformation [4]: Compound NOT metabolized
- Bacterial Biotransformation [5]: Compound NOT metabolized
- Bacterial Biotransformation [6]: Compound NOT metabolized
- Bacterial Biotransformation [7]: Compound NOT metabolized
- Bacterial Biotransformation [8]: Compound metabolized
- Bacterial Biotransformation [9]: Compound NOT metabolized

SMILES: CCCCC1=NC2(CCCC2)C(=O)N1Cc1ccc(-c2ccccc2-c2nnn[nH]2)cc1 [IRBESARTAN]
- Bacterial Biotransformation [1]: Compound NOT metabolized
- Bacterial Biotransformation [2]: Compound metabolized
- Bacterial Biotransformation [3]: Compound NOT metabolized
- Bacterial Biotransformation [4]: Compound metabolized
- Bacterial Biotransformation [5]: Compound metabolized
- Bacterial Biotransformation [6]: Compound metabolized
- Bacterial Biotransformation [7]: Compound NOT metabolized
- Bacterial Biotransformation [8]: Compound metabolized
- Bacterial Biotransformation [9]: Compound metabolized

SMILES: NC(CO)(CO)CO.O=C(c1ccccc1)c1ccc2n1CCC2C(=O)O (stereo not given) [KETOROLAC TROMETHAMINE]
- Bacterial Biotransformation [1]: Compound metabolized
- Bacterial Biotransformation [2]: Compound metabolized
- Bacterial Biotransformation [3]: Compound NOT metabolized
- Bacterial Biotransformation [4]: Compound metabolized
- Bacterial Biotransformation [5]: Compound metabolized
- Bacterial Biotransformation [6]: Compound metabolized
- Bacterial Biotransformation [7]: Compound metabolized
- Bacterial Biotransformation [8]: Compound metabolized
- Bacterial Biotransformation [9]: Compound metabolized

SMILES: COc1c2occc2cc2ccc(=O)oc12 [METHOXSALEN]
- Bacterial Biotransformation [1]: Compound NOT metabolized
- Bacterial Biotransformation [2]: Compound metabolized
- Bacterial Biotransformation [3]: Compound metabolized
- Bacterial Biotransformation [4]: Compound metabolized
- Bacterial Biotransformation [5]: Compound metabolized
- Bacterial Biotransformation [6]: Compound metabolized
- Bacterial Biotransformation [7]: Compound metabolized
- Bacterial Biotransformation [8]: Compound metabolized
- Bacterial Biotransformation [9]: Compound metabolized

SMILES: CNC(=C[N+](=O)[O-])NCCSCc1csc(CN(C)C)n1 [NIZATIDINE]
- Bacterial Biotransformation [1]: Compound NOT metabolized
- Bacterial Biotransformation [2]: Compound NOT metabolized
- Bacterial Biotransformation [3]: Compound NOT metabolized
- Bacterial Biotransformation [4]: Compound NOT metabolized
- Bacterial Biotransformation [5]: Compound metabolized
- Bacterial Biotransformation [6]: Compound metabolized
- Bacterial Biotransformation [7]: Compound metabolized
- Bacterial Biotransformation [8]: Compound metabolized
- Bacterial Biotransformation [9]: Compound NOT metabolized

SMILES: COc1ccc2[nH]c([S+]([O-])Cc3ncc(C)c(OC)c3C)nc2c1 (stereo not given) [OMEPRAZOLE]
- Bacterial Biotransformation [1]: Compound metabolized
- Bacterial Biotransformation [2]: Compound metabolized
- Bacterial Biotransformation [3]: Compound metabolized
- Bacterial Biotransformation [4]: Compound metabolized
- Bacterial Biotransformation [5]: Compound metabolized
- Bacterial Biotransformation [6]: Compound metabolized
- Bacterial Biotransformation [7]: Compound metabolized
- Bacterial Biotransformation [8]: Compound metabolized
- Bacterial Biotransformation [9]: Compound metabolized

SMILES: O=C(O)CCc1nc(-c2ccccc2)c(-c2ccccc2)o1 [OXAPROZIN]
- Bacterial Biotransformation [1]: Compound NOT metabolized
- Bacterial Biotransformation [2]: Compound metabolized
- Bacterial Biotransformation [3]: Compound NOT metabolized
- Bacterial Biotransformation [4]: Compound metabolized
- Bacterial Biotransformation [5]: Compound metabolized
- Bacterial Biotransformation [6]: Compound metabolized
- Bacterial Biotransformation [7]: Compound NOT metabolized
- Bacterial Biotransformation [8]: Compound metabolized
- Bacterial Biotransformation [9]: Compound metabolized

SMILES: CC(C)(C)NC[C@H](O)COc1ccccc1C1CCCC1.CC(C)(C)NC[C@H](O)COc1ccccc1C1CCCC1.O=S(=O)(O)O [PENBUTOLOL SULFATE]
- Bacterial Biotransformation [1]: Compound NOT metabolized
- Bacterial Biotransformation [2]: Compound metabolized
- Bacterial Biotransformation [3]: Compound NOT metabolized
- Bacterial Biotransformation [4]: Compound metabolized
- Bacterial Biotransformation [5]: Compound metabolized
- Bacterial Biotransformation [6]: Compound metabolized
- Bacterial Biotransformation [7]: Compound metabolized
- Bacterial Biotransformation [8]: Compound metabolized
- Bacterial Biotransformation [9]: Compound metabolized

SMILES: CCOc1ccc(NC(C)=O)cc1 [PHENACETIN]
- Bacterial Biotransformation [1]: Compound NOT metabolized
- Bacterial Biotransformation [2]: Compound NOT metabolized
- Bacterial Biotransformation [3]: Compound NOT metabolized
- Bacterial Biotransformation [4]: Compound NOT metabolized
- Bacterial Biotransformation [5]: Compound NOT metabolized
- Bacterial Biotransformation [6]: Compound NOT metabolized
- Bacterial Biotransformation [7]: Compound NOT metabolized
- Bacterial Biotransformation [8]: Compound NOT metabolized
- Bacterial Biotransformation [9]: Compound NOT metabolized

SMILES: Nc1ccc(/N=N/c2ccccc2)c(N)n1 [PHENAZOPYRIDINE]
- Bacterial Biotransformation [1]: Compound metabolized
- Bacterial Biotransformation [2]: Compound metabolized
- Bacterial Biotransformation [3]: Compound metabolized
- Bacterial Biotransformation [4]: Compound metabolized
- Bacterial Biotransformation [5]: Compound metabolized
- Bacterial Biotransformation [6]: Compound metabolized
- Bacterial Biotransformation [7]: Compound metabolized
- Bacterial Biotransformation [8]: Compound metabolized
- Bacterial Biotransformation [9]: Compound metabolized

SMILES: CC(C(=O)O)c1ccc2c(c1)Cc1cccnc1O2 (stereo not given) [PRANOPROFEN]
- Bacterial Biotransformation [1]: Compound metabolized
- Bacterial Biotransformation [2]: Compound metabolized
- Bacterial Biotransformation [3]: Compound metabolized
- Bacterial Biotransformation [4]: Compound metabolized
- Bacterial Biotransformation [5]: Compound metabolized
- Bacterial Biotransformation [6]: Compound metabolized
- Bacterial Biotransformation [7]: Compound metabolized
- Bacterial Biotransformation [8]: Compound metabolized
- Bacterial Biotransformation [9]: Compound metabolized

SMILES: CCc1nc(N)nc(N)c1-c1ccc(Cl)cc1 [PYRIMETHAMINE]
- Bacterial Biotransformation [1]: Compound NOT metabolized
- Bacterial Biotransformation [2]: Compound NOT metabolized
- Bacterial Biotransformation [3]: Compound NOT metabolized
- Bacterial Biotransformation [4]: Compound NOT metabolized
- Bacterial Biotransformation [5]: Compound NOT metabolized
- Bacterial Biotransformation [6]: Compound NOT metabolized
- Bacterial Biotransformation [7]: Compound NOT metabolized
- Bacterial Biotransformation [8]: Compound metabolized
- Bacterial Biotransformation [9]: Compound NOT metabolized

SMILES: COc1ccccc1OCC(O)CN1CCN(CC(=O)Nc2c(C)cccc2C)CC1 (stereo not given) [RANOLAZINE]
- Bacterial Biotransformation [1]: Compound NOT metabolized
- Bacterial Biotransformation [2]: Compound NOT metabolized
- Bacterial Biotransformation [3]: Compound NOT metabolized
- Bacterial Biotransformation [4]: Compound NOT metabolized
- Bacterial Biotransformation [5]: Compound NOT metabolized
- Bacterial Biotransformation [6]: Compound NOT metabolized
- Bacterial Biotransformation [7]: Compound NOT metabolized
- Bacterial Biotransformation [8]: Compound NOT metabolized
- Bacterial Biotransformation [9]: Compound NOT metabolized

SMILES: CCCc1nn(C)c2c(=O)[nH]c(-c3cc(S(=O)(=O)N4CCN(C)CC4)ccc3OCC)nc12.O=C(O)CC(O)(CC(=O)O)C(=O)O [SILDENAFIL CITRATE]
- Bacterial Biotransformation [1]: Compound NOT metabolized
- Bacterial Biotransformation [2]: Compound NOT metabolized
- Bacterial Biotransformation [3]: Compound NOT metabolized
- Bacterial Biotransformation [4]: Compound NOT metabolized
- Bacterial Biotransformation [5]: Compound NOT metabolized
- Bacterial Biotransformation [6]: Compound NOT metabolized
- Bacterial Biotransformation [7]: Compound NOT metabolized
- Bacterial Biotransformation [8]: Compound metabolized
- Bacterial Biotransformation [9]: Compound NOT metabolized

SMILES: COc1ccc2[nH]c([S+]([O-])Cc3ncc(C)c(OC)c3C)nc2n1 (stereo not given) [TENATOPRAZOLE]
- Bacterial Biotransformation [1]: Compound metabolized
- Bacterial Biotransformation [2]: Compound metabolized
- Bacterial Biotransformation [3]: Compound metabolized
- Bacterial Biotransformation [4]: Compound NOT metabolized
- Bacterial Biotransformation [5]: Compound metabolized
- Bacterial Biotransformation [6]: Compound metabolized
- Bacterial Biotransformation [7]: Compound metabolized
- Bacterial Biotransformation [8]: Compound metabolized
- Bacterial Biotransformation [9]: Compound NOT metabolized

SMILES: CN1C(C(=O)Nc2ccccn2)=C(O)c2sccc2S1(=O)=O [TENOXICAM]
- Bacterial Biotransformation [1]: Compound NOT metabolized
- Bacterial Biotransformation [2]: Compound NOT metabolized
- Bacterial Biotransformation [3]: Compound NOT metabolized
- Bacterial Biotransformation [4]: Compound NOT metabolized
- Bacterial Biotransformation [5]: Compound NOT metabolized
- Bacterial Biotransformation [6]: Compound NOT metabolized
- Bacterial Biotransformation [7]: Compound NOT metabolized
- Bacterial Biotransformation [8]: Compound NOT metabolized
- Bacterial Biotransformation [9]: Compound NOT metabolized

SMILES: O=c1n(CCCN2CCN(c3cccc(Cl)c3)CC2)nc2ccccn12 [TRAZODONE]
- Bacterial Biotransformation [1]: Compound NOT metabolized
- Bacterial Biotransformation [2]: Compound metabolized
- Bacterial Biotransformation [3]: Compound NOT metabolized
- Bacterial Biotransformation [4]: Compound NOT metabolized
- Bacterial Biotransformation [5]: Compound metabolized
- Bacterial Biotransformation [6]: Compound metabolized
- Bacterial Biotransformation [7]: Compound metabolized
- Bacterial Biotransformation [8]: Compound metabolized
- Bacterial Biotransformation [9]: Compound NOT metabolized

SMILES: OC(CCN1CCCCC1)(c1ccccc1)C1CCCCC1 (stereo not given) [TRIHEXYPHENIDYL]
- Bacterial Biotransformation [1]: Compound NOT metabolized
- Bacterial Biotransformation [2]: Compound metabolized
- Bacterial Biotransformation [3]: Compound NOT metabolized
- Bacterial Biotransformation [4]: Compound NOT metabolized
- Bacterial Biotransformation [5]: Compound metabolized
- Bacterial Biotransformation [6]: Compound metabolized
- Bacterial Biotransformation [7]: Compound NOT metabolized
- Bacterial Biotransformation [8]: Compound metabolized
- Bacterial Biotransformation [9]: Compound metabolized
